How the values were obtained:
PAR-4 [1] = assay: PAR-4 inducing activity, general statement of the inventors; type: cell-based, human and mouse; conditions: summary statement, no test details
PAR-4 [2] = assay: In-vitro PAR-4 induction in mouse embryonic fibroblast cells (Western blot); type: cell-based; conditions: for PAR-4 secretion in the cell supernatant: 18-21 h incubation, Western blot
Experimental: (§1) Mouse embryonic fibroblast cells were harvested from exponential phase cultures. After a 24 h recovery period to allow the cells to resume exponential growth the cells were treated with M of Pyronaridine followed by further 18-21 h of incubation. […] The samples were also subjected to SDS/PAGE and Coomassie blue staining to determine albumin levels in serum from the Conditioned Medium (CM) as another loading control.
as §1, with “[…]” for “Pyronaridine”, “CM” for “Conditioned Medium (CM)”
as §1, with “fibroblast” for “fibroblast cells”, “with 25 µM” for “with M”, “of Meloquine” for “of Pyronaridine”, “the cell supernatant” for “the Conditioned Medium (CM)”
as §1, with “[…]” for “Pyronaridine”, “CM” for “Conditioned Medium (CM)”
as §1, with “fibroblast” for “fibroblast cells”, “with 25 μM” for “with M”, “of Mebendazole” for “of Pyronaridine”, “the cell supernatant” for “the Conditioned Medium (CM)”
as §1, with “fibroblast” for “fibroblast cells”, “with 25 µM” for “with M”, “of Tafenoquine” for “of Pyronaridine”, “the cell supernatant” for “the Conditioned Medium (CM)”
The experiment was conducted as per method set in an Example 1.

GRP-78 = assay: In-vitro GRP-78 induction in human ovarian and renal cancer cell lines (Western blot); type: cell-based; conditions: 25 μM, 18-21 h
Experimental: (§2) Human ovarian cancer cell line SKOV-3 and renal cancer cell line 786-0 were harvested from exponential phase cultures. After a 24 h recovery period to allow the cells to resume exponential growth the cells were treated with 25 μM of Mefloquine followed by further 18-21 h of incubation. Induction of GRP-78 expression was checked in the cell lysate by subjecting the samples to Western blot analysis with antibodies specific for GRP-78.
as §2, with “Mebendazole” for “Mefloquine”
as §2, with “Tafenoquine” for “Mefloquine”

PAR-4 [3] = conditions: literature (Burikhanov et al. 2014); cited from earlier work
PAR-4 [4] = conditions: at micromolar levels; cited from earlier work
PAR-4 [5] = assay: In-vivo PAR-4 induction in C57/BL6 mice (systemic serum PAR-4); parameters: species or system mouse; conditions: blood 24 hrs later
Experimental: Immunocompetent mice were orally administered with 10 mg/kg and 51.2 mg/kg body weight of Mefloquine or vehicle for 3 consecutive days followed by collection of blood 24 hrs later, serum separation and testing for systemic levels of PAR-4. Immunocompetent mice were orally administered with 1.5 mg/kg body weight of Narasin or vehicle for 3 consecutive days followed by collection of blood 24 hrs later, serum separation and testing for systemic levels of PAR-4.

metastatic lung tumors = conditions: injected in mice; literature (Zhao et al. 2011); cited from earlier work
[6] = 25 μM (25 M [sic] for Mefloquine and Tafenoquine)
[7] = SKOV-3 human ovarian cancer cell line

Molecule: COc1cc(C)c2c(Oc3cccc(C(F)(F)F)c3)c(OC)cc(NC(C)CCCN)c2n1 (stereo not shown) [Tafenoquine]
- PAR-4 inducing activity (PAR-4 [1]): found to possess PAR-4 inducing activity
- Dose dependence of PAR-4 induction (PAR-4 [2]): Dose dependent induction of PAR-4
- PAR-4 secretion in the cell supernatant (PAR-4 [2]; [6]): able to induce robust PAR-4 secretion
- Induction of PAR-4 in cell lysate (PAR-4 [2]): Induction of PAR-4
- GRP-78 expression in cell lysate (GRP-78; 786-0 renal cancer cell line): induced GRP-78 expression
- GRP-78 expression in cell lysate (GRP-78; [7]): induced GRP-78 expression

Molecule: CCn1cc(C(=O)O)c(=O)c2ccc(C)nc21 [Nalidixic Acid]
- PAR-4 inducing activity (PAR-4 [1]): found to possess PAR-4 inducing activity
- PAR-4 secretion in the cell supernatant (PAR-4 [2]; test concentration not given): able to induce robust PAR-4 secretion

Molecule: COc1ccc2nc3cc(Cl)ccc3c(Nc3cc(CN4CCCC4)c(O)c(CN4CCCC4)c3)c2n1 [Pyronaridine]
- PAR-4 inducing activity (PAR-4 [1]): found to possess PAR-4 inducing activity
- Dose dependence of PAR-4 induction (PAR-4 [2]): in a dose dependent manner
- PAR-4 secretion in the cell supernatant (PAR-4 [2]; test concentration not given): able to induce robust PAR-4 secretion

Molecule: Cc1cccc(C)c1OCC(=O)N[C@@H](Cc1ccccc1)[C@@H](O)C[C@H](Cc1ccccc1)NC(=O)[C@H](C(C)C)N1CCCNC1=O [Lopinavir]
- PAR-4 inducing activity (PAR-4 [1]): found to possess PAR-4 inducing activity
- PAR-4 secretion in the cell supernatant (PAR-4 [2]; test concentration not given): able to induce robust PAR-4 secretion

Molecule: O=C(Nc1cc(Cl)cc2c1[nH]c1cnccc12)c1cccnc1 [PS-1145]
- Secretion of PAR-4 from normal cells in mice (PAR-4 [3]): can increase secretion of PAR-4

Molecule: COc1ccc(-c2ccc3cc(C(=O)O)ccc3c2)cc1C12CC3CC(CC(C3)C1)C2 [Adapalene]
- PAR-4 inducing activity (PAR-4 [1]): found to possess PAR-4 inducing activity

Molecule: CCn1cc(C(=O)O)c(=O)c2cnc(N3CCNCC3)nc21 [Pipemidic Acid]
- PAR-4 inducing activity (PAR-4 [1]): found to possess PAR-4 inducing activity
- PAR-4 secretion in the cell supernatant (PAR-4 [2]; test concentration not given): able to induce robust PAR-4 secretion

Molecule: COc1ccc(C2=N[C@@H](c3ccc(Cl)cc3)[C@@H](c3ccc(Cl)cc3)N2C(=O)N2CCNC(=O)C2)c(OC(C)C)c1 [Nutlin-3a]
- PAR-4 secretion in MEF cells (PAR-4 [4]): stimulated PAR-4 secretion
- Secretion of PAR-4 from normal cells in mice (PAR-4 [3]): can increase secretion of PAR-4

Molecule: COC(=O)Nc1nc2ccc(C(=O)c3ccccc3)cc2[nH]1 [Mebendazole]
- PAR-4 inducing activity (PAR-4 [1]): found to possess PAR-4 inducing activity
- PAR-4 secretion in the cell supernatant (PAR-4 [2]; [6]): able to induce robust PAR-4 secretion
- Induction of PAR-4 in cell lysate (PAR-4 [2]): Induction of PAR-4
- GRP-78 expression in cell lysate (GRP-78; 786-0 renal cancer cell line): induced GRP-78 expression
- GRP-78 expression in cell lysate (GRP-78; [7]): induced GRP-78 expression

Molecule: CC[C@@H](C(=O)O)[C@@H]1O[C@@H]([C@@H](C)[C@H](O)[C@H](C)C(=O)[C@H](CC)[C@H]2O[C@]3(C=C[C@@H](O)[C@]4(CC[C@@](C)([C@H]5CC[C@](O)(CC)[C@H](C)O5)O4)O3)[C@H](C)C[C@@H]2C)[C@@H](C)C[C@@H]1C [Narasin]
- PAR-4 inducing activity (PAR-4 [1]): found to possess PAR-4 inducing activity
- PAR-4 secretion in the cell supernatant (PAR-4 [2]; test concentration not given): able to induce robust PAR-4 secretion
- Elevation of PAR-4 in mouse serum relative to vehicle (PAR-4 [5]; oral 1.5 mg/kg for 3 consecutive days): induced robust elevation of PAR-4

Molecule: C[C@@H]1CN(c2c(F)c(N)c3c(=O)c(C(=O)O)cn(C4CC4)c3c2F)C[C@H](C)N1 [Sparfloxacin]
- PAR-4 inducing activity (PAR-4 [1]): found to possess PAR-4 inducing activity
- PAR-4 secretion in the cell supernatant (PAR-4 [2]; test concentration not given): able to induce robust PAR-4 secretion

Molecule: CN(C)c1ccc2cc(-c3ccccc3F)c(N)nc2c1 [Arylquin-1]
- Secretion of PAR-4 from normal cells in mice (PAR-4 [3]): can increase secretion of PAR-4

Molecule: OC(c1cc(C(F)(F)F)nc2c(C(F)(F)F)cccc12)C1CCCCN1 (stereo not shown) [Mefloquine]
- PAR-4 inducing activity (PAR-4 [1]): found to possess PAR-4 inducing activity
- PAR-4 secretion in the cell supernatant (PAR-4 [2]; [6]): able to induce robust PAR-4 secretion
- GRP-78 expression in cell lysate (GRP-78; 786-0 renal cancer cell line): induced GRP-78 expression
- GRP-78 expression in cell lysate (GRP-78; [7]): induced GRP-78 expression
- Elevation of PAR-4 in mouse serum relative to vehicle (PAR-4 [5]; oral 51.2 mg/kg for 3 consecutive days): induced robust elevation of PAR-4

Molecule: CC(C)N1CCN(c2ccc(OCC3COC(Cn4cncn4)(c4ccc(Cl)cc4Cl)O3)cc2)CC1 (stereo not shown) [Terconazole]
- PAR-4 inducing activity (PAR-4 [1]): found to possess PAR-4 inducing activity
- Dose dependence of PAR-4 induction (PAR-4 [2]): in a dose dependent manner
- PAR-4 secretion in the cell supernatant (PAR-4 [2]; test concentration not given): able to induce robust PAR-4 secretion
- Induction of PAR-4 in cell lysate (PAR-4 [2]): Induction of PAR-4

B1: recombinant PAR-4: recombinant PAR-4 protein injected in mice to elevate extracellular PAR-4 (protein, UniProt Q96IZ0 1-340, looked up)
PRKC apoptosis WT1 regulator …: MATGGYRTSSGLGGSTTDFLEEWKAKREKMRAKQNPPGPAPPGGGSSDAAGKPPAGALGTPAAAAANELNNNLPGGAPAAPAVPGPGGVNCAVGSAMLTRAAPGPRRSEDEPPAASASAAPPPQRDEEEPDGVPEKGKSSGPSARKGKGQIEKRKLREKRRSTGVVNIPAAECLDEYEDDEAGQKERKREDAITQQNTIQNEAVNLLDPGSSYLLQEPPRTVSGRYKSTTSVSEEDVSSRYSRTDRSGFPRYNRDANVSGTLVSSSTLEKKIEDLEKEVVRERQENLRLVRLMQDKEEMIGKLKEEIDLLNRDLDDIEDENEQLKQENKTLLKVVGQLTR
- Effect on metastatic lung tumors (metastatic lung tumors): cause inhibition of metastatic lung tumors

Source: US20200215074A1, “Method of Treatment of Cancer” (CIPLA LIMITED, priority 2017, published 2020)
